Patent US20170304169A1, “USE OF A COSMETIC COMPOSITION COMPRISING 10-HYDROXYSTEARIC ACID” (DSM IP ASSETS B.V., priority 2014, published 2017)

Tests used:
Format in all cases: cell-based
[1] = system: Collagen 1; experiment: Collagen 1 synthesis in normal human fibroblasts (immunofluorescence, high content imaging); details: 48 h, primary human fibroblasts; for collagen 1 induction (in words): increasing amounts of compound
Experimental: (§1) Human dermal fibroblasts isolated from a biopsy of a donor (Fb-D) were maintained in Dulbecco's modified Eagle's medium high glucose (DMEM) containing 10% fetal calf serum (FCS) and 1% penicillin/streptomycin (P/S). Cells were cultivated at 37° C. in a humidified 5% CO2-air atmosphere.
Human dermal fibroblasts were pre-cultured in DMEM 10% FCS 1% P/S for 24 h before being starved in DMEM low glucose containing 0.2% FCS and 1% P/S for 2.5 days. Starvation medium was then replaced and solubilized compounds were added and incubated for 48 h. After compound incubation cells were fixed in DPBS containing 4% formaldehyde for 15 min and permeabilized with DPBS 0.1% Triton-X100 for 90 sec. Collagen 1 was detected using mouse anti human collagen 1 antibody and the first antibody was detected with AlexaFluor 488 conjugated goat anti-mouse IgG. We counterstained nuclei with DAPI. Stained cells were analysed with the Thermo Fisher High Content Imaging System. There were acquired 49 pictures per well with a 10× objective and images were subsequently analysed using the “CellHealthProfiling” bioapplication v4. Collagen 1 was measured in a defined region around the nucleus and the fluorescence intensity values were normalized to cell count.
Following a pre-culture period, primary human fibroblasts were incubated for 48 h with increasing amounts of compound. Cells were then fixed and collagen 1 protein level was assessed by immunofluorescence. The experiment was repeated twice. After starvation fibroblasts were incubated for 48 h with increasing amounts of compound. TGF-β1 serves as positive control. Values given are fold collagen 1 induction compared with control cells. […] Collagen 1 induction reached 2.2 fold induction when 10-HSA was used at 5 μM.

[2] = system: MMP-1; experiment: MMP-1 expression by RT-qPCR in UVB-irradiated human skin organ culture; details: UVB (1 J/cm2), human skin explants
Experimental: Human skin from abdominal plastic surgery has been used (donor). Informed consent has been obtained. The skin phototype has been assayed with a spectro-colorimeter and classified as “LIGHT” (ITA° angle=50°) (pigmentation scale: very light<light<intermediate<tanned<brown<dark) (Del Bino et al., Pigment Cell Research, 19. 2006).
The skin samples have been cut in pieces of 8×3 mm (ø×thickness) and cultured up to day 2. Two skin samples for each treatment have been cultured to perform the MMP-1 analysis.
Skin samples have been cultured in an air-liquid interface in a perforated ring of stainless steel in contact with culture medium (modified Williams' E medium) up to day 2. The culture medium has been renewed every three days (i.e. day 0-3).
Both the test samples and the controls have been applied topically, renewed 1 hour prior of UVB irradiation. Right before the irradiation the treatments have been gently yet carefully removed from the skin samples. […]
For RT-qPCR analysis, total RNA have been extracted from full thickness skin using RNAeasy mini kit for fibrous tissues (Qiagen) following manufacturer's instructions. After quantification, 400 ng of total RNA have been retro-transcribed using random hexamers and Superscript III (Invitrogen). […]

[3] = system: Type III collagen; experiment: Collagen 3 synthesis in normal human fibroblasts (immunofluorescence, ArrayScan); details: 48 h, human dermal fibroblasts
Experimental: Human dermal fibroblasts obtained from adult skin (donor) were seeded into 96-well plates (4000 cells/well) and cultured in Dulbecco's Modified Eagle Medium (DMEM) with 10% fetal calf serum (FCS) and 1% Penicillin/Streptomycin (Life Technologies, Lucerne, Switzerland) at 37° C. with 5% CO2 for 24 h. After medium was changed with DMEM Low Glucose containing 0.2% FCS and 1% Pen/Strep, the cells were incubated for another 2.5 days. Then, starvation medium was replaced with fresh medium containing the test compounds. After 48 h incubation the cells were fixed in Dulbecco's Phosphate-Buffered Saline (DPBS) containing 4% formaldehyde (Life Technologies, Lucerne, Switzerland) for 15 min and permeabilized with 0.1% Triton-X100 in DPBS for 90 sec.
Collagen 3 was detected using rabbit anti-human Type III collagen (BioTrend, Cologne, Germany), followed by the AlexaFluor 488 conjugated secondary IgG antibody (goat anti-rabbit IgG, Life Technologies, Lucerne, Switzerland). […]
Stained cells were analysed with the ArrayScan VTI HCS Reader (Thermo Fisher Scientific, Waltham, Mass., USA). The total of 49 pictures per well was acquired with a 10× objective and images were subsequently analysed using the “CellHealthProfiling” bioapplication v4. Collagen was measured in a defined region around the nucleus and the fluorescence intensity values were normalized to the cell count. […]

[4] = system: Human dermal fibroblasts; experiment: Cytotoxicity measurement, MTT assay in human dermal fibroblasts; details: normal human fibroblasts, 48 h
Experimental: as §1
Cytotoxicity was measured using the MTT assay according to the manufacturer's instructions. In brief: Fibroblasts (4000 cells/well, in 96-well cell culture plates from Nunc) were pre-cultured in DMEM 10% FCS 1% Penicillin/Streptomycin (P/S) for 24 h before being starved in DMEM low glucose containing 0.2% FCS and 1% P/S for 2.5 days. Starvation medium was then replaced and solubilized compounds were added and incubated for 48 h. Subsequently 10 μl MTT labelling reagent were added to each well (final concentration 0.5 mg/ml) and the microtiter plate was incubated for 4 h (37° C., 5% CO2). After addition of 100 μl solubilization solution into each well, the plate was allowed to stand overnight in the incubator (37° C., 5% CO2). The absorbance (OD) was measured in an absorbance plate reader at 550 nm.
Normal human fibroblasts treated with compounds for 48 h were assessed for viability using the MTT assay. Control values without compound were set to 100% viability.

[5] = system: p53; experiment: p53 detection and quantification in UVB-irradiated human skin organ culture; details: 0.1 mg/ml, UVB (1 J/cm2), human skin explants
Experimental: Cell culture was performed as in example 12 above.
Skin sections have been stained with the antibody for p53 (Abcam, #ab7757). The p53 positive cells have been counted and the obtained value have been divided upon the area covered by epidermis. Two slides of each skin sample have been processed by image acquisition and related analysis (i.e. 12 images for each test treatment).
(§2) All quantitative data have been summarized in terms of the mean score for each treatment. The measures of variation as standard deviation and standard error of mean (SEM) have been applied to the original scores. Differences between groups were evaluated by One-way anova with permutation test followed by pairwise post-hoc comparisons—Dunnett's permutation test and pairwise post hoc comparisons—Tukey's HSD permutation tests.

[6] = system: Collagen 3; experiment: Collagen 3 immunostaining in human skin organ culture; details: topical, human skin explants
Experimental: (§3) Human skin from abdominal plastic surgery has been used (donor[…]). Informed consent has been obtained. The skin phototype has been assayed with a spectro-colorimeter and classified as “BROWN” (ITA° angle=9.3°) (pigmentation scale: very light<light<intermediate<tanned<brown<dark) (Del Bino et al., Pigment Cell Research, 19. 2006).
(§4) The skin samples have been cut in pieces of approximately 8×3 mm (ø×thickness) and cultured up to day 6. Fourteen skin specimens have been used for each treatment. Two skin samples have been cultured to perform the skin viability test, six to perform the skin pigmentation and the collagen analyses and six for the SBC test.
Skin samples have been cultured in an air-liquid interface in a perforated ring of stainless steel in contact with culture medium (modified Williams' E medium) up to day 6. […]
Skin sections have been immune-stained with the selected antibody. The amount of the antigen present in each slide has been evaluated by estimating the intensity and the distribution of the red within a selected area of the dermis using Image J (NIH-USA). […]
as §2, with “The measures of variation as standard deviation and standard error of mean (SEM) have been applied to the original scores.” left out

[7] = system: Human skin from abdominal plastic surgery; experiment: Skin viability (MTT) in human skin organ culture; details: topical, 0.1, 1 and 10 mg/ml, day 6, MTT
Experimental: as §3, §4
Skin samples have been cultured in an air-liquid interface in a perforated ring of stainless steel in contact with culture medium (modified Williams' E medium) up to day 6. The culture medium has been renewed every three days (i.e. day 0-3).
Both the test samples and the controls have been applied topically and renewed daily. […]
After 6 days of incubation two skin biopsies have been weighed and, in case, reduced in the dermal portion, in order to have approximately the same weight for all of them. […] Subsequently the blue crystals have been solubilized and the color intensity, that is directly proportional to skin vitality, has been measured with a plate reader at a wavelength of 570 nm. […]

SMILES | collagen 1 induction (in words) [1] | MMP-1 expression in comparison to vehicle (DMSO), in words [2] | increase in type III collagen compared with medium treated cells ([3]; 5 μM) | type III collagen synthesis (in words) ([3]; p<0.01 relative to medium control) | cytotoxic effect (reduction of cell survival to less than 80% compared to control cells) [4] | p53 UV-induced stimulation vs DMSO UV [5] | increase in expression of collagen 3 ([6]; 0.1 mg/ml) | increase in expression of collagen 3 ([6]; 1 mg/ml) | skin viability [7] | fold collagen 1 induction compared with control cells ([1]; 5 μM)
CCCCCCCCCCCCCCCCCC(=O)O [stearic acid] | did not induced collagen 1 expression |  |  |  |  |  |  |  |  | 
CCCCCCCCC(O)CCCCCCCCC(=O)O (centres unmarked) [10-HSA, 10-hydroxystearic acid] | dose dependent induction of collagen 1 | significantly and considerably reduced the expression of MMP-1 | 244% | significantly induced type III collagen synthesis in a dose-dependent manner | did not show any cytotoxic effect | −46% | +49% | +57% | did not affect skin viability | 2.2 fold
